Measured values reported in the supplement of paper PMC7661543.
± gives the standard deviation of the averaged measurements.

Key:
Test in all cases: relative cell number vs DMSO control (72 h) (% of DMSO); higher = less growth inhibition (more cells)
Conditions in all cases: sgRNA knockout: sgNT
BT-20 = system: BT-20
Protocol: (§1)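 QMAP-Seq: a pool of 5 breast cancer cell lines (ZR-75-1, SKBR3, HCC-38, MDA-MB-231, BT-20), each carrying 12 doxycycline-inducible Cas9 sgRNA perturbations (11 knockouts plus non-targeting sgNT), was treated with compounds for 72 h at four 10-fold doses (10 nM-10 uM or 1 nM-1 uM range). Barcodes were amplified and sequenced, and cell number was interpolated from 293T spike-in standard curves. The result is expressed as % of the median of DMSO wells. Two biological replicates.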

HCC-38 = system: HCC-38
Protocol: as §1

MDA-MB-231 = system: MDA-MB-231
Protocol: as §1

SKBR3 = system: SKBR3
Protocol: as §1

ZR-75-1 = system: ZR-75-1
Protocol: as §1

Structure (SMILES) | relative cell number (BT-20; 10 nM) | relative cell number (BT-20; 100 nM) | relative cell number (BT-20; 1000 nM) | relative cell number (BT-20; 10000 nM) | relative cell number (HCC-38; 10 nM) | relative cell number (HCC-38; 100 nM) | relative cell number (HCC-38; 1000 nM) | relative cell number (HCC-38; 10000 nM) | relative cell number (MDA-MB-231; 10 nM) | relative cell number (MDA-MB-231; 100 nM) | relative cell number (MDA-MB-231; 1000 nM) | relative cell number (MDA-MB-231; 10000 nM) | relative cell number (SKBR3; 10 nM) | relative cell number (SKBR3; 100 nM) | relative cell number (SKBR3; 1000 nM) | relative cell number (SKBR3; 10000 nM) | relative cell number (ZR-75-1; 10 nM) | relative cell number (ZR-75-1; 100 nM) | relative cell number (ZR-75-1; 1000 nM) | relative cell number (ZR-75-1; 10000 nM)
Cc1cc(N2CCOCC2)cc2[nH]c(-c3c(NC[C@@H](O)c4cccc(Cl)c4)cc[nH]c3=O)nc12 | 70.9 ± 10 | 88.3 ± 11 | 94 ± 14 | 67.4 ± 17 | 94.97 ± 0.84 | 89.4 ± 24 | 93.6 ± 7.3 | 30.7 ± 3.4 | 85.2 ± 7.6 | 76.6 ± 42 | 77.5 ± 2.4 | 15 ± 2.3 | 107 ± 3.5 | 73 ± 16 | 60 ± 15 | 60.3 ± 12 | 78.8 ± 51 | 53.3 ± 10 | 84.2 ± 8.8 | 13.7 ± 10
Cc1ccc(C(=O)N(CCCN)[C@@H](c2oc3cc(Cl)ccc3c(=O)c2Cc2ccccc2)C(C)C)cc1 | 29.6 ± 8.5 | 27.7 ± 4.7 | 33.7 ± 11 | 5.17 ± 2.2 | 24 ± 0.85 | 27.8 ± 8.2 | 28.9 ± 4.7 | 5.58 ± 0.82 | 23 ± 9 | 16.8 ± 5.6 | 17.2 ± 11 | 4.71 ± 1.3 | 15.6 ± 15 | 11.3 ± 1.2 | 15.3 ± 5.2 | 5.26 ± 4.4 | 26.5 ± 2.3 | 21.8 ± 0.36 | 27.9 ± 5.1 | 3 ± 1.2
Cc1ccc(S(=O)(=O)OCC(=O)Nc2ccc(C(=O)O)c(O)c2)cc1 | 101 ± 26 | 115 ± 40 | 108 ± 17 | 95.6 ± 33 | 119 ± 7.6 | 102 ± 1.3 | 91.8 ± 5.4 | 89.6 ± 9.3 | 128 ± 26 | 61.9 ± 5.4 | 117 ± 20 | 86.1 ± 20 | 83.3 ± 40 | 77.3 ± 3.9 | 93.7 ± 14 | 116 ± 58 | 91.2 ± 35 | 68.9 ± 12 | 99.1 ± 36 | 103 ± 8.6
Cc1ccccc1-n1c(Cn2cnc3c(N)ncnc32)nc2cccc(C)c2c1=O | 110 ± 2.1 | 133 ± 22 | 102 ± 15 | 113 ± 5.9 | 97.9 ± 27 | 104 ± 18 | 102 ± 12 | 95.6 ± 8.2 | 123 ± 7.7 | 128 ± 20 | 101 ± 9 | 153 ± 48 | 104 ± 11 | 107 ± 12 | 101.8 ± 0.55 | 93.3 ± 7.2 | 112 ± 23 | 98.5 ± 40 | 71.4 ± 14 | 105 ± 6
Cc1cnc(-c2cnc(NCCNc3ccc(C#N)cn3)nc2-c2ccc(Cl)cc2Cl)[nH]1 | 110 ± 4.5 | 103 ± 19 | 73.6 ± 3.6 | 106 ± 22 | 98.4 ± 21 | 89.08 ± 0.19 | 104 ± 2.4 | 126.9 ± 0.6 | 88.2 ± 11 | 92.2 ± 8.4 | 79.9 ± 25 | 72.7 ± 21 | 99.6 ± 12 | 91.2 ± 2.6 | 73.7 ± 18 | 85.9 ± 40 | 104 ± 21 | 85.3 ± 13 | 66.2 ± 15 | 77.1 ± 10
Cc1cnc(Nc2ccc(OCCN3CCCC3)cc2)nc1Nc1cccc(S(=O)(=O)NC(C)(C)C)c1 | 99.9 ± 19 | 92.6 ± 1.8 | 81.3 ± 12 | 42.5 ± 4.4 | 99.1 ± 2.6 | 90.301 ± 0.055 | 68.7 ± 8.1 | 11.7 ± 2.2 | 88.9 ± 26 | 116 ± 5.9 | 64.9 ± 6.9 | 5.85 ± 0.9 | 89 ± 48 | 68.7 ± 15 | 75.4 ± 15 | 16.9 ± 0.89 | 105 ± 22 | 108 ± 2.4 | 71.3 ± 26 | 10.8 ± 5.8
